Some test systems named below: M19-MEL; DMS-114; HOP-18; DLD-1; DMS-273; SNB-78; LXFL 529; RXF 631; XF498.
Common to all, as to experiment: inhibition of tumour cell growth, NCI panel, 48 h

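Values below derive from 48-hour exposures of cells grown in 96-well plates, with endpoints linearly interpolated between the two concentrations bracketing the appropriate inhibition level. Here, GI50 denotes the concentration required for 50% inhibition of growth.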 The source made the active and inactive calls. No stated cut-off is given here; in the data, active = GI50 up to about 1.1 µM and inactive = higher.

Regarding `CCC12C=C(C(=O)OC)N3c4ccccc4C4CCN(CCC1)C2C43` (configuration not stated), the GI50 with M19-MEL is 75.9 µM (inactive); in the test on DMS-114, 63 µM (inactive); in the test with HOP-18, > 100 µM (inactive); with DLD-1, 66.7 µM (inactive); in the test with DMS-273, 59.6 µM (inactive); in the test with SNB-78, > 100 µM (inactive). Further, the GI50 in the test with LXFL 529 is 87.1 µM (inactive).

Regarding `Cc1ccc(S(=O)(=O)N/N=C2\C(=O)C3CC2C(Cl)C3Cl)cc1` (configuration not stated), the GI50 with DMS-114, in the test with HOP-18, in the test with DLD-1, with DMS-273, in the test with RXF 631 and with LXFL 529 was > 100 µM (inactive) each time.

Take `C=C1CCC(OC(C)=O)C2(C)C(OC(C)=O)CC3OC3(C)C2C(OC(C)=O)C2C(C)C(=O)OC2C1Cl` (configuration not stated): the GI50 with M19-MEL, in the test on DMS-114, with HOP-18, in the test with DLD-1, in the test on DMS-273 and with XF498 was > 100 µM (inactive) throughout. Moreover, the GI50 with SNB-78, in the test on RXF 631 and in the test with LXFL 529 was > 100 µM (inactive) in each case.

On to `COc1ccc2nc3cc(Cl)ccc3c(NC(C)CCCN(CCCl)CCCl)c2c1` (configuration not stated), for which the GI50 was 0.598 µM (active) in the test on M19-MEL; 0.733 µM (active) in the test with DMS-114; 0.524 µM (active) with DLD-1; 0.109 µM (active) in the test with DMS-273; 0.333 µM (active) in the test with XF498; 0.622 µM (active) in the test with SNB-78. The GI50 in the test on LXFL 529 was 0.439 µM (active).

In the case of `CCc1ccccc1N1C(=O)C(=O)C(c2nc3ccccc3s2)C(=O)C1=O`, the GI50 in the test with M19-MEL is > 100 µM (inactive); in the test on DMS-114, 79.3 µM (inactive); in the test with HOP-18, > 100 µM (inactive); with DLD-1 it was 43.2 µM (inactive); with XF498 it was > 100 µM (inactive); with SNB-78, > 100 µM (inactive). In addition, the GI50 in the test on RXF 631 is 44.3 µM (inactive); with LXFL 529, 75.7 µM (inactive).

For `O=C(CC1Sc2ccccc2NC1=O)Nc1ccc([N+](=O)[O-])cc1[N+](=O)[O-]` (configuration not stated), the GI50 in the test with M19-MEL is 16.1 µM (inactive); with DMS-114, 14.2 µM (inactive); in the test with HOP-18 it was 3.39 µM (inactive); in the test on DLD-1 it was 15.3 µM (inactive); in the test on SNB-78, 21.2 µM (inactive); in the test with RXF 631 it was 17.1 µM (inactive). In addition, the GI50 with LXFL 529 was 15.3 µM (inactive).

Regarding `Nc1cccc(C(=O)/C=C/c2ccccc2O)c1`, the GI50 in the test on M19-MEL is > 100 µM (inactive); in the test with DMS-114, 46.7 µM (inactive); in the test on HOP-18, 84.3 µM (inactive); in the test with DLD-1, > 100 µM (inactive); with DMS-273, > 100 µM (inactive); in the test with XF498, > 100 µM (inactive). The GI50 is > 100 µM (inactive) in the test on SNB-78 and 71.4 µM (inactive) in the test with LXFL 529.

For the molecule `C[n+]1c2ccccc2c(CNC(CS)C(=O)O)c2ccccc21` (configuration not stated), the GI50 in the test on M19-MEL is 27.7 µM (inactive); in the test on HOP-18 it was 49.1 µM (inactive); in the test on DLD-1, 24.6 µM (inactive); in the test on DMS-273, 18.5 µM (inactive); in the test on XF498, 24.3 µM (inactive); in the test on SNB-78, 34.3 µM (inactive). The GI50 in the test on RXF 631 was 24.9 µM (inactive); in the test on LXFL 529, 32.4 µM (inactive).

Consider `C[C@]12CCC(=O)C(OC(=O)c3ccc([N+](=O)[O-])cc3)=C1CCC2=O`, for which the GI50 with M19-MEL, in the test on DMS-114, with HOP-18, in the test with DLD-1, with DMS-273 and with SNB-78 was > 100 µM (inactive) throughout. In addition, in the test with LXFL 529, the GI50 was > 100 µM (inactive).

Regarding `C[S+]=c1sc2ccccc2s1`, the GI50 with M19-MEL, in the test with DMS-114, with HOP-18, in the test on DLD-1, in the test on DMS-273 and in the test with RXF 631 was > 100 µM (inactive) throughout. The GI50 with LXFL 529 is > 100 µM (inactive).

As for `C#CC1(O)CCC2C3CCc4cc(Oc5nc(F)nc(-c6c7ccccc7c7n6CCS7)n5)ccc4C3CC[C@@]21C` (some centres not stated), the GI50 was 33.9 µM (inactive) in the test with M19-MEL; 11.2 µM (inactive) with DMS-114; 39.8 µM (inactive) in the test with DLD-1; 27.2 µM (inactive) with DMS-273; 37.7 µM (inactive) with XF498; 25.1 µM (inactive) in the test on LXFL 529.

With `N#CC(C#N)=c1ccc(=C2N3CCCC3CN2C23CC4CC(CC(C4)C2)C3)cc1` (configuration not stated), the GI50 in the test on M19-MEL, in the test on DMS-114, in the test on HOP-18, in the test with DLD-1, in the test with DMS-273 and in the test with SNB-78 was > 100 µM (inactive) in each case. In addition, the GI50 with LXFL 529 was > 100 µM (inactive).

For `COC(=O)C1CC2CC(=NNC(N)=O)CC2C1` (configuration not stated), the GI50 with M19-MEL, in the test with DMS-114, in the test with DLD-1, in the test with DMS-273, with XF498 and in the test on SNB-78 was > 100 µM (inactive) each time. In the test on LXFL 529, the GI50 is > 100 µM (inactive).

`NC(=O)C(=O)Cc1nc2ccccc2s1`: the GI50 in the test on M19-MEL, with DMS-114, in the test with HOP-18, in the test on XF498, with SNB-78 and in the test on LXFL 529 was > 100 µM (inactive) throughout.

On to `Cc1nc2ccccn2c1/N=N/c1ccc(C(=O)NN)cc1`, for which the GI50 in the test with M19-MEL was > 100 µM (inactive); in the test on DMS-114, 17.4 µM (inactive); in the test on HOP-18, 70.6 µM (inactive); with DLD-1, 52.4 µM (inactive); with XF498 it was 75 µM (inactive); in the test on SNB-78, > 100 µM (inactive). In addition, the GI50 in the test on RXF 631 is 31.7 µM (inactive); in the test on LXFL 529, 38.5 µM (inactive).

Take `CN(C)C(=N)c1ccccc1`: the GI50 in the test on M19-MEL, with DMS-114, with DMS-273, in the test on XF498, in the test on SNB-78 and in the test with LXFL 529 was > 100 µM (inactive) throughout.

As for `COC(=O)CCC(NC(=S)N/N=C(\C)c1cnccn1)C(=O)OC` (configuration not stated), the GI50 in the test on M19-MEL is 39.5 µM (inactive); with DMS-114, 22.1 µM (inactive); in the test with HOP-18, 56.1 µM (inactive); in the test with DLD-1 it was 48 µM (inactive); in the test with XF498, > 100 µM (inactive); in the test with SNB-78, > 100 µM (inactive). The GI50 with RXF 631 was 73.5 µM (inactive); with LXFL 529 it was 57.7 µM (inactive).

Values taken from ChEMBL document CHEMBL1201862, “PubChem BioAssay data set” (2004).
